This note sets out measurements from patent US5876761A, “Sustained release formulations of water soluble peptides” (Novartis AG, priority 1990, dated 1999).

Each structure is given as a SMILES string. “Also recorded” adds a separate entry of the source.

This data set in a line: Stability of octreotide pamoate in sustained release formulations. It counts as physicochemical. As to conditions: in sustained release formulations (microparticles); hydrate.

On to `C[C@@H](O)[C@@H]1NC(=O)[C@H](CCCCN)NC(=O)[C@@H](Cc2c[nH]c3ccccc23)NC(=O)[C@H](Cc2ccccc2)NC(=O)[C@@H](NC(=O)[C@H](N)Cc2ccccc2)CSSC[C@@H](C(=O)N[C@H](CO)[C@@H](C)O)NC1=O` [pamoate, octreotide pamoate hydrate], for which the stability result is reported as “excellent stability; also recorded: very stable”.
